# Measurements reported in US10787444B2, “Compounds for the modulation of myc activity” (Syros Pharmaceuticals, Inc., priority 2015, dated 2020).
# Where two headings read alike, the source gives them in different places.
# Experiments:
# c-Myc/Max/Ebox DNA = molecular target: T1, c-Myc/Max/Ebox DNA (Homo sapiens, UniProt P01106); assay: c-Myc/Max/Ebox DNA AlphaScreen Assay; assay type: binding; conditions: Table 2, compounds of FIG. 1; calculated IC50 class
# T1 construct: his6 (cleaved yes)
# Method in brief: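 Compounds were preincubated with free c-Myc (20 nM), biotinylated single-Ebox DNA (10 nM) and Ni acceptor beads before his6-Max (5 nM) and streptavidin donor beads were added. Buffer was 50 mM HEPES pH 8.0, 150 mM NaCl, BSA, Tween20, glycogen and DTT, with DMSO ≤2%. After 2 h incubation, AlphaScreen signal was read at 680 nm excitation and 520–620 nm emission.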
# [1] = system: human small lung cancer cell line H2171; assay: Cell Viability Assay (ATPlite); assay type: cell-based; conditions: Table 2, compounds of FIG. 1, H2171 cells, three days, ATPlite, calculated IC50 class, read-out: H2171 Activity
# Method in brief: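 H2171 cells were plated at 20,000 cells/mL and dosed immediately by pin transfer with a 10-point dose series in DMSO. After three days at 37° C, ATPlite luminescence served as the viability readout.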
# T1 sequence (P01106 whole entry): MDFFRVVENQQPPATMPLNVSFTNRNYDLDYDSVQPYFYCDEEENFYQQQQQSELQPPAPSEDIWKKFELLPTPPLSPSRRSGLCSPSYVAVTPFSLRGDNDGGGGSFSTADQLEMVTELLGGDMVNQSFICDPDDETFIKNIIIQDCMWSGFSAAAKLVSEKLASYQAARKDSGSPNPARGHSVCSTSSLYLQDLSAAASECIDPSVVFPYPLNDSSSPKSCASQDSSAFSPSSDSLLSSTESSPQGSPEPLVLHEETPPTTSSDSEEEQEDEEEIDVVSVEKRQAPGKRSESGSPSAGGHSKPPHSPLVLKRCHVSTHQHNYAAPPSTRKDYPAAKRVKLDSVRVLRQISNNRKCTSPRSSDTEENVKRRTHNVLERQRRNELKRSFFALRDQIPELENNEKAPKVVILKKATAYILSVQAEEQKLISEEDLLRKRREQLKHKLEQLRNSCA
SMILES,IC50 (c-Myc/Max/Ebox DNA) [nM],"IC50 ([1]; Homo sapiens, NCI-H2171, 72 h) [nM]",IC50 [1] [nM]
"CC(C)N1CCc2c(sc(NC(=O)CCNCc3cnn(C)c3)c2-c2nc3ccccc3s2)C1 [Compound 100, N-(3-(benzo[d]thiazol-2-yl)-6-isopropyl-4,5,6,7-tetrahydrothieno[2,3-c]pyridin-2-yl)-3-(((1-methyl-1H-pyrazol-4-yl)methyl)amino)propanamide]",300 to 1000,< 300,–
CCC(C)N(C)CCC(=O)Nc1sc2c(c1-c1nc3ccccc3s1)CCN(C(C)C)C2 (stereo not shown) [Compound 122],< 300,–,300 to 1000
"CCC(C)NCCC(=O)Nc1sc2c(c1-c1nc3cc(F)ccc3s1)CCNC2 (stereo not shown) [Compound 123, 3-(sec-butylamino)-N-(3-(5-fluorobenzo[d]thiazol-2-yl)-4,5,6,7-tetrahydrothieno[2,3-c]pyridin-2-yl) propanamide]",< 300,< 300,–
"CCC(C)NCCC(=O)Nc1sc2c(c1-c1nc3ccccc3s1)CCNC2 (stereo not shown) [Compound 124, N-(3-(benzo[d]thiazol-2-yl)-4,5,6,7-tetrahydrothieno[2,3-c]pyridin-2-yl)-3-(sec-butylamino)propanamide]",< 300,< 300,–
"CCC(C)NCCC(=O)Nc1sc2c(c1-c1nc3cc(C(F)(F)F)ccc3s1)CCNC2 (stereo not shown) [Compound 125, 3-(sec-butylamino)-N-(3-(5-(trifluoromethyl)benzo[d]thiazol-2-yl)-4,5,6,7-tetrahydrothieno[2,3-c]pyridin-2-yl) propanamide]",300 to 1000,300 to 1000,–
"CCC(C)NCCC(=O)Nc1sc2c(c1-c1nc3cc(F)ccc3s1)CCN(C(C)C)C2 (stereo not shown) [Compound 126, 3-(sec-butylamino)-N-(3-(5-fluorobenzo[d]thiazol-2-yl)-6-isopropyl-4,5,6,7-tetrahydrothieno[2,3-c]pyridin-2-yl)propanamide]",< 300,< 300,–
"CC(C)N1CCc2c(sc(NC(=O)CCNC(C)(C)C)c2-c2nc3ccccc3s2)C1 [Compound 127, N-(3-(benzo[d]thiazol-2-yl)-6-isopropyl-4,5,6,7-tetrahydrothieno[2,3-c]pyridin-2-yl)-3-(tert-butylamino)propanamide]",300 to 1000,300 to 1000,–
"CNCCC(=O)Nc1sc2c(c1-c1nc3ccccc3s1)CCNC2 [Compound 128, N-(3-(benzo[d]thiazol-2-yl)-4,5,6,7-tetrahydrothieno[2,3-c]pyridin-2-yl)-3-(methylamino)propanamide]",< 300,< 300,–
"CC(C)NCCC(=O)Nc1sc2c(c1-c1nc3ccccc3s1)CCNC2 [Compound 129, N-(3-(benzo[d]thiazol-2-yl)-4,5,6,7-tetrahydrothieno[2,3-c]pyridin-2-yl)-3-(isopropylamino)propanamide]",< 300,< 300,–
"CN(C)CCC(=O)Nc1sc2c(c1-c1nc3ccccc3s1)CCNC2 [Compound 130, N-(3-(benzo[d]thiazol-2-yl)-4,5,6,7-tetrahydrothieno[2,3-c]pyridin-2-yl)-3-(dimethylamino)propanamide]",< 300,< 300,–
"CC(C)(C)NCCC(=O)Nc1sc2c(c1-c1nc3ccccc3s1)CCNC2 [Compound 131, N-(3-(benzo[d]thiazol-2-yl)-4,5,6,7-tetrahydrothieno[2,3-c]pyridin-2-yl)-3-(tert-butylamino)propanamide]",< 300,300 to 1000,–

# Second part, the compound after the results:
IC50 (c-Myc/Max/Ebox DNA) [nM],"IC50 ([1]; Homo sapiens, NCI-H2171, 72 h) [nM]",IC50 [1] [nM],SMILES
< 300,< 300,–,"CC[C@H](C)NCCC(=O)Nc1sc2c(c1-c1nc3cc(C(F)(F)F)ccc3s1)CC(C)NC2C (single isomer, unassigned) [Compound 584]"
< 300,–,< 300,"CC[C@H](C)NCCC(=O)Nc1sc2c(c1-c1nc3cc(C(F)(F)F)ccc3s1)CC(C)NC2C (single isomer, unassigned) [Compound 585]"
> 10000,–,< 300,"CC[C@H](C)NCCC(=O)Nc1sc2c(c1-c1nc3cc(C(F)(F)F)ccc3s1)CC(C)NC2C (single isomer, unassigned) [Compound 586]"
> 10000,–,300 to 1000,"CC[C@H](C)NCCC(=O)Nc1sc2c(c1-c1nc3cc(C(F)(F)F)ccc3s1)CC(C)NC2C (single isomer, unassigned) [Compound 587]"
1000 to 10000,–,1000 to 10000,"CC[C@H](C)NCCC(=O)Nc1sc2c(c1-c1nc3ccccc3s1)CC(C)NC2C (single isomer, unassigned) [Compound 620]"
> 10000,–,1000 to 10000,"CC[C@H](C)NCCC(=O)Nc1sc2c(c1-c1nc3ccccc3s1)CC(C)NC2C (single isomer, unassigned) [Compound 621]"
< 300,–,< 300,"CC[C@H](C)NCCC(=O)Nc1sc2c(c1-c1nc3ccccc3s1)CC(C)NC2C (single isomer, unassigned) [Compound 624]"
300 to 1000,300 to 1000,–,"CC(C)NCCC(=O)Nc1sc2c(c1-c1nc3ccccc3s1)CCN(C(C)C)C2 [Compound 132, N-(3-(benzo[d]thiazol-2-yl)-6-isopropyl-4,5,6,7-tetrahydrothieno[2,3-c]pyridin-2-yl)-3-(isopropylamino)propanamide]"
> 10000,1000 to 10000,–,"CC(C)N1CCc2c(sc(NC(=O)CCN3C(=O)C=CC3=O)c2-c2nc3ccccc3s2)C1 [Compound 133, N-(3-(benzo[d]thiazol-2-yl)-6-isopropyl-4,5,6,7-tetrahydrothieno[2,3-c]pyridin-2-yl)-3-(2,5-dioxo-2,5-dihydro-1H-pyrrol-1-yl)propanamide]"
< 300,< 300,–,"COCCNCCC(=O)Nc1sc2c(c1-c1nc3ccccc3s1)CCNC2 [Compound 134, N-(3-(benzo[d]thiazol-2-yl)-4,5,6,7-tetrahydrothieno[2,3-c]pyridin-2-yl)-3-((2-methoxyethyl)amino)propanamide]"
< 300,< 300,–,"CC[C@H](C)NCCC(=O)Nc1sc2c(c1-c1nc3ccccc3s1)CCN(C(C)C)C2 [Compound 135, (S)—N-(3-(benzo[d]thiazol-2-yl)-6-isopropyl-4,5,6,7-tetrahydrothieno[2,3-c]pyridin-2-yl)-3-(sec-butylamino)propanamide]"
1000 to 10000,300 to 1000,–,"O=C(CCNCCc1cccnc1)Nc1sc2c(c1-c1nc3ccccc3s1)CCNC2 [Compound 136, N-(3-(benzo[d]thiazol-2-yl)-4,5,6,7-tetrahydrothieno[2,3-c]pyridin-2-yl)-3-((2-(pyridin-3-yl)ethyl)amino) propanamide]"
1000 to 10000,> 10000,–,"CCC(C)NCCC(=O)Nc1sc2c(c1-c1nc3ccccc3s1)CCN(C1COC1)C2 (stereo not shown) [Compound 137, N-(3-(benzo[d]thiazol-2-yl)-6-(oxetan-3-yl)-4,5,6,7-tetrahydrothieno[2,3-c]pyridin-2-yl)-3-(sec-butylamino)propanamide]"
< 300,< 300,–,"CC[C@@H](C)NCCC(=O)Nc1sc2c(c1-c1nc3ccccc3s1)CCN(C(C)C)C2 [Compound 140, (R)—N-(3-(benzo[d]thiazol-2-yl)-6-isopropyl-4,5,6,7-tetrahydrothieno[2,3-c]pyridin-2-yl)-3-(sec-butylamino)propanamide]"
< 300,< 300,–,"CCC(C)NCCC(=O)Nc1sc2c(c1-c1nc3cc(C(F)(F)F)ccc3s1)CCN(C(C)C)C2 (stereo not shown) [Compound 142, 3-(sec-butylamino)-N-(6-isopropyl-3-(5-(trifluromethyl)benzo[d]thiazol-2-yl)-4,5,6,7-tetrahydrothieno[2,3-c]pyridin-2-yl)propanamide]"
